# Results reported in publication PMC11323312, “Structural response of G protein binding to the cyclodepsipeptide inhibitor FR900359 probed by NMR spectroscopy” (Chemical Science, 2024).
# Starred links: 1 amine or outer side, 2 acyl side, 3 side chain; linkers in the order of their positions; H or OH if unused. Positions of bridges follow the written chain, without caps; N, C: chain ends. Non-standard residues stand in square brackets, D forms with d. Residues, ends and D or L forms follow the SMILES beside them. *: point of attachment. Leu(3R-OH,Nα-propionyl) = CCC(=O)N[C@H](C(=O)*)[C@H](O)C(C)C; X1 = CC(C)[C@@H](O[*:3])[C@H](N[*:1])C(=O)[*:2]; NMeT = CN[C@H](C(=O)O)[C@@H](C)O; dPhLac = O=C(O)[C@H](O)Cc1ccccc1; NMeA = CN[C@@H](C)C(=O)O; NMeDha = C=C(NC)C(=O)O
# Experiments:
# [1] = molecular target: T1, chimeric Gαi/q protein (FR-sensitive Gαi mutant) (Homo sapiens, UniProt P63096, H188P/K180P/K54R/T187Y/V185I/V50I/V72L/Y69F); test: Radioligand binding ([3H]PSB-15900 homologous competition, filtration assay); details: chimeric Gαi/q on TALON beads, 5 μg protein; [3H]PSB-15900 5 nM; unlabeled FR 0.003-30 μM; 2 h, 4 °C; 50 mM Tris-HCl pH 7.4; one-site homologous equation; mean ± SD of 3 independent experiments in duplicates
# T1 construct: made in house; host or cells: E. coli (pET16b)
# T1 sequence (P63096 whole entry V50I/K54R/Y69F/V72L/K180P/V185I/T187Y/H188P): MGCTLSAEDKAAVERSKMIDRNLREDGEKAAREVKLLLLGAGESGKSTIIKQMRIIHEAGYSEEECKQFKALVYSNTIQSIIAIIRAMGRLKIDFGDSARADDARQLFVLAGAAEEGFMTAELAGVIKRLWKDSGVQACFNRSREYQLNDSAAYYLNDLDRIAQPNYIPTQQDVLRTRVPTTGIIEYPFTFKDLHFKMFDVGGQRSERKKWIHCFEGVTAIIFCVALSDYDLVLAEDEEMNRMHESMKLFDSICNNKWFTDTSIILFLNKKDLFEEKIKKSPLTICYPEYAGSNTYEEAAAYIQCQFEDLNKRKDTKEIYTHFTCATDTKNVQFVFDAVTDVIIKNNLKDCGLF
# Method: The purified chimeric Gαi/q protein was preincubated with TALON immobilized metal affinity chromatography (IMAC) resin beads (Takara Bio) for 1–2 h at 4 °C with gentle shaking (0.025 μL beads per 0.1 mL of protein solution in 50 mM Tris–HCl, pH 7.4; final protein amount per sample: 5 μg). Each sample contained 70 μL of assay buffer (50 mM Tris–HCl, pH 7.4), 5 μL of dimethyl sulfoxide (DMSO) or the test compound (dissolved in DMSO), 50 μL of [^3H]PSB-15900 (FR-derived radioligand; 28 Ci/mmol; Pharmaron, Cardiff, UK)[14] in assay buffer (final concentration: 5 nM) and 125 μL of protein solution. Total binding of [^3H]PSB-15900 was determined using 5 μL of DMSO, and non-specific binding was determined using 5 μL of unlabeled FR900359 (final concentration: 5 μM). For competition binding experiments, dilutions from 30 μM to 0.003 μM of unlabeled FR900359, dissolved in DMSO, were added. Incubation was performed for 2 h at 4 °C with gentle shaking. […]
# Multiple regions of the protein are either directly involved in binding of cyclodepsipeptide inhibitors, as shown by structural data on bound YM,[23] or show an indirect response to binding of the inhibitor, as proposed by MD simulations.[13,25] To investigate the conformational response of the G protein to inhibitor binding, structural alterations of the G protein itself must be detected. […]
# Gαi/q = test: Structural response to inhibitor binding by DNP-enhanced ssNMR (13C-NCOCX, unique pair labeling); details: inhibitor : protein 1.5 : 1, 4 °C overnight, nominal 105 K
# Method: The protein response to inhibitor binding was studied by HNCO(CX) experiments with 20 ms mixing time recorded on DNP samples of frozen Gαi/q protein solution. The polarizing agent AsymPolPOK[36] was dried from a chloroform : methanol (1 : 1) stock solution to form a film that was resuspended with 1 mg of protein solution that was concentrated to a volume of 15 μL, subsequently 15 μL of d8-glycerol was added. The final concentration of radical in the mixture with the protein sample in the 3.2 mm NMR rotor was 10 mM. The samples were measured at a DNP setup consisting of a 400 MHz Avance Neo spectrometer (Bruker) with a 3.2 mm Cryo MAS HCN probe (Bruker) and a 263 GHz Gyrotron as microwave source. All experiments were done at a nominal temperature of 105 K. A MAS rate of 8 kHz and proton decoupling of 100 kHz were chosen. To investigate the effects of inhibitor binding, the protein solution was incubated with unlabeled FR or YM from a 10 mM DMSO stock solution at an inhibitor to protein molar ratio of 1.5 : 1 at 4 °C overnight. To study the effects of nucleotide binding, 5 μL of GDP was added to the samples from a 17 mM solution of GDP : MgCl2 (3 : 1 molar ratio) directly into the rotor. The GTP-bound state was generated by subsequent addition of 2 μL of GTP [0.1 M] and 2 μL AlF4 salt solution (150 mM MgCl2, 75 mM NaF, 15 mM AlCl3). DNP enhancement was measured by comparison of ^13C-CP spectra with and without microwave irradiation. Referencing was done indirectly using the right peak of d8-glycerol at 64.78 ppm.
# In order to collect information about conformational changes in a spatially resolved manner, a unique pair labeling approach was chosen,[50] resulting in signals in the NMR spectra from a unique pair of neighboring amino acids in NCO type experiments. […] To obtain sufficient signal intensity in the experiments, spectra were recorded using DNP-enhanced ssNMR. […] Under those conditions, the full sampled conformational space is conserved and reflected in NMR line shapes, which can then be analyzed. […]
Compound,Kd [1] [nM],response of switch III (R242-M243) to inhibitor binding (Gαi/q; RM-pair),response of α5 helix (V335-F336) to inhibitor binding (Gαi/q; VF-pair),response of switch I (V179-P180) to inhibitor binding (Gαi/q; VP-pair)
"C=C1C(=O)N[C@@H](C)C(=O)N(C)[C@@H](C)C(=O)N[C@@H]([C@H](OC(=O)[C@@H](NC(=O)CC)[C@H](O)C(C)C)C(C)C)C(=O)N(C)[C@@H]([C@@H](C)OC)C(=O)O[C@H](C(C)C)[C@H](NC(C)=O)C(=O)O[C@H](Cc2ccccc2)C(=O)N1C [FR, FR900359] (Ac-[X1][dPhLac][NMeDha]A[NMeA][X1](Leu(3R-OH,Nα-propionyl))[NMeT](Me); ester 1-C)",271 ± 69,–,–,–
YM-254890,–,no effects in switch III,minor effects,clear narrowing of the ^13C valine signals
